Measured values: article PMC10584170, “Machine learning-based phenotypic imaging to characterise the targetable biology of Plasmodium falciparum male gametocytes for the development of transmission-blocking antimalarials” (PLOS Pathogens, 2023)
Like-named read-outs stand apart in the source and are kept apart here.

Columns and labels:
[1] = system: P. falciparum male gametocytes; assay: P. falciparum Dual Gamete Formation Assay (PfDGFA), male readout (exflagellation); assay type: cell-based, Plasmodium falciparum NF54; details: for Activity: hit = >50% inhibition in male or female readout in at least 3 replicates, 0 = no class assigned; for inhibition at 2 µM: 24h preincubation with gametocytes
Method in brief: (§1)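 Mature NF54 gametocytes (day 14) were incubated with compound for 24 h at 37°C under 1% O2/3% CO2, then triggered with xanthurenic acid ookinete medium plus Cy3-anti-Pfs25. Exflagellation was imaged by brightfield; after a further 24 h at 28°C, Pfs25-positive female gametes were imaged by fluorescence and counted by automated image analysis.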

[2] = system: P. falciparum female gametocytes; assay: P. falciparum Dual Gamete Formation Assay (PfDGFA), female readout (Pfs25-positive female gametes); assay type: cell-based, Plasmodium falciparum NF54; details: for inhibition at 2 µM: 24h preincubation with gametocytes
Method in brief: as §1

[3] = 2µM, 24h preincubation with gametocytes prior to induction of gametogenesis, average of replicates
[4] = 2µM, 24h preincubation with gametocytes prior to induction of gametogenesis, replicate R1
[5] = 2µM, 24h preincubation with gametocytes prior to induction of gametogenesis, replicate R3
[6] = 2µM, 24h preincubation with gametocytes prior to induction of gametogenesis, replicate R4
[7] = 2µM, 24h preincubation, hits selected on >50% inhibition in the male readout across replicates
[8] = PfDGFA at 2µM, 24h preincubation
[9] = 2µM, 24h preincubation, hits selected on >50% inhibition in the female readout across replicates
[10] = 2µM, 24h preincubation, number of replicates with >50% inhibition in the male readout
[11] = 2µM, 24h preincubation, number of replicates with >50% inhibition in the female readout
[12] = PfDGFA at 2µM, 24h preincubation with gametocytes prior to induction of gametogenesis, replicate R1
[13] = PfDGFA at 2µM, 24h preincubation with gametocytes prior to induction of gametogenesis, replicate R3
[14] = PfDGFA at 2µM, 24h preincubation with gametocytes prior to induction of gametogenesis, replicate R4
[15] = PfDGFA at 2µM, 24h preincubation, average of replicates

| Structure (SMILES) | Average inhibition male (%) [1, 3] | % inhibition male (individual replicates) R1 [1, 4] | % inhibition male (individual replicates) R3 [1, 5] | % inhibition male (individual replicates) R4 [1, 6] | Average inhibition female (%) [2, 3] | % inhibition female (individual replicates) R1 [2, 4] | % inhibition female (individual replicates) R3 [2, 5] | % inhibition female (individual replicates) R4 [2, 6] | HitlevelM [1, 10] | HitlevelF [2, 11] | other results |
| --- | --- | --- | --- | --- | --- | --- | --- | --- | --- | --- | --- |
| O=C(O)C(F)(F)F.Oc1ccc(CCNc2nc(NCCCOc3cc(CN4CCCCC4)ccc3F)nc(N3CCNCC3)n2)cc1 [TCMDC-134044] | 22.7% | 35.5% | -22.2% | 28.2% | 16.2% | 9.4% | -11.0% | 47.6% |  |  | HitlevelM [1, 7]: 0; Activity [1, 8]: 0; HitlevelF [2, 9]: 0 |
| Cc1c(Cl)cccc1S(=O)(=O)Nc1ccc(CCN2CCC(N)CC2)cc1.Cl [TCMDC-134083] | 39.0% | 41.2% | 34.9% | 36.9% | 33.7% | 28.3% | 44.7% | 16.4% | 0 | 0 |  |
| Cl.NC1CCN(CCc2ccc(NS(=O)(=O)c3cccc4ccccc34)cc2)CC1 [TCMDC-134084] | 20.4% | 10.3% |  | 7.9% | 19.4% | 15.4% | 22.2% | 21.1% | 0 | 0 |  |
| Cl.NC1CCN(CCc2ccc(NS(=O)(=O)c3ccc(-c4ccccc4)cc3)cc2)CC1 [TCMDC-134085] | 44.1% | 43.6% | 36.7% | 44.2% | 47.2% | 28.9% | 50.6% | 70.5% | 1 | 2 |  |
| COc1ccc(-c2cnc(NCc3ccccc3)nc2)cc1CNC1CCN(C)CC1.O=C(O)C(F)(F)F [TCMDC-134121] | 49.5% | 40.8% |  | 53.6% | 23.3% | 22.9% | 24.0% | 18.0% | 2 | 0 |  |
| CS(=O)(=O)Cc1ccc(Nc2ncc(Cl)c(Nc3cccnc3C(N)=O)n2)cc1.Cl [TCMDC-134165] |  |  |  |  |  |  |  |  |  |  | Selectivity Ratio M ([1]; HepG2 Tox50 versus male IC50): 16.00; inhibition at 2 µM ([1]; Plasmodium falciparum, 2µM, average of replicates, read-out: Average inhibition male (%)): 92.8%; inhibition at 2 µM ([1]; Plasmodium falciparum, 2µM, replicate R1, read-out: % inhibition male (individual replicates) R1): 89.8%; inhibition at 2 µM ([1]; Plasmodium falciparum, 2µM, replicate R2, read-out: % inhibition male (individual replicates) R2): 95.7%; inhibition at 2 µM ([1]; Plasmodium falciparum, 2µM, replicate R3, read-out: % inhibition male (individual replicates) R3): 93.3%; inhibition at 2 µM ([1]; Plasmodium falciparum, 2µM, replicate R4, read-out: % inhibition male (individual replicates) R4): 92.2%; IC50 ([1]; Plasmodium falciparum, PfDGFA, 24 h incubation with gametocytes before induction, exflagellation readout, read-out: Male IC50): 6.25 µM; Selectivity ratio F ([2]; HepG2 Tox50 versus female IC50): 10.00; inhibition at 2 µM ([2]; Plasmodium falciparum, 2µM, average of replicates, read-out: Average inhibition female (%)): -4.3%; inhibition at 2 µM ([2]; Plasmodium falciparum, 2µM, replicate R1, read-out: % inhibition female (individual replicates) R1): -8.1%; inhibition at 2 µM ([2]; Plasmodium falciparum, 2µM, replicate R2, read-out: % inhibition female (individual replicates) R2): -1.5%; inhibition at 2 µM ([2]; Plasmodium falciparum, 2µM, replicate R3, read-out: % inhibition female (individual replicates) R3): -18.7%; inhibition at 2 µM ([2]; Plasmodium falciparum, 2µM, replicate R4, read-out: % inhibition female (individual replicates) R4): 10.9%; IC50 ([2]; Plasmodium falciparum, PfDGFA, 24 h incubation with gametocytes before induction, female gamete readout, read-out: Female IC50): > 10 µM |
| CS(=O)(=O)Cc1cccc(Nc2ncc(Cl)c(Nc3cccnc3C(N)=O)n2)c1.Cl [TCMDC-134166] |  |  |  |  |  |  |  |  |  |  | % inhibition male (individual replicates) R1 [1, 12]: 26.3%; % inhibition male (individual replicates) R3 [1, 13]: 45.1%; % inhibition male (individual replicates) R4 [1, 14]: 42.9%; Average inhibition male (%) [1, 15]: 37.5%; % inhibition female (individual replicates) R1 [2, 12]: 12.6%; % inhibition female (individual replicates) R3 [2, 13]: -16.8%; % inhibition female (individual replicates) R4 [2, 14]: 3.4%; Average inhibition female (%) [2, 15]: 1.1% |
| CC[C@H](C)CNC(=O)c1ccnc(-c2ccc(CN3CCC(N4CCCC4)CC3)cc2)c1.O=C(O)C(F)(F)F [TCMDC-134250] | -12.4% | -12.1% | -7.9% | -29.8% | 14.3% | 14.5% | 6.5% | 6.6% |  |  | HitlevelM [1, 7]: 0; Activity [1, 8]: 0; HitlevelF [2, 9]: 0 |
| CC1CCCC(C)N1C[C@@H](O)CNS(=O)(=O)c1cccc(C(F)(F)F)c1.Cl (some centres unmarked) [TCMDC-134258] | 5.6% | -0.6% | 1.0% | 12.9% | 4.2% | 10.4% | -24.4% | 21.9% |  |  | HitlevelM [1, 7]: 0; Activity [1, 8]: 0; HitlevelF [2, 9]: 0 |
| CN(C)CCC1CCN(CCS(=O)(=O)c2cccc(Nc3ncc(-c4cccc(F)c4)cn3)c2)CC1 [TCMDC-134374] | 10.6% | 1.8% | -1.4% | 25.6% | 19.0% | 15.2% | 18.5% | 17.0% | 0 | 0 |  |
| COc1cccc(-c2csc(C(=O)NCC3CCN(Cc4ccc(C(C)(C)C)cc4)C3)c2)c1.O=C(O)C(F)(F)F (centres unmarked) [TCMDC-134447] | 11.1% | 23.9% | 12.3% | 2.2% | 52.6% | 33.4% | 31.5% | 78.5% | 0 | 2 |  |
| CCc1ccccc1-c1csc(C(=O)NCC2CCN(Cc3ccc(C(C)(C)C)cc3)C2)c1.O=C(O)C(F)(F)F (centres unmarked) [TCMDC-134448] | -3.3% | 5.2% | -15.7% | -8.5% | 31.2% | 30.8% | 36.1% | 25.0% | 0 | 0 |  |
| COc1cccc(OC)c1CN1CCC(N(C)CCCCCCCCN2CCC(OC(=O)Nc3ccccc3-c3ccccc3)CC2)CC1 [TCMDC-134684] | 52.6% | 48.0% | 25.4% | 71.6% | 31.6% | 24.1% | 24.2% | 37.8% | 2 | 0 |  |
| COc1ccc(NC(=O)[C@H](Cc2ccccc2)Nc2cc(C)nc(NCCc3ccccn3)n2)cc1.O=C(O)C(F)(F)F [TCMDC-134746] |  |  |  |  |  |  |  |  |  |  | % inhibition male (individual replicates) R1 [1, 12]: -7.8%; % inhibition male (individual replicates) R3 [1, 13]: -30.0%; % inhibition male (individual replicates) R4 [1, 14]: 23.6%; Average inhibition male (%) [1, 15]: -7.4%; % inhibition female (individual replicates) R1 [2, 12]: 14.8%; % inhibition female (individual replicates) R3 [2, 13]: -15.3%; % inhibition female (individual replicates) R4 [2, 14]: -1.8%; Average inhibition female (%) [2, 15]: 1.5% |
| Cc1cc(N[C@@H](CC(C)C)C(=O)NCc2cccs2)nc(NCCc2cccs2)n1.O=C(O)C(F)(F)F [TCMDC-134815] |  |  |  |  |  |  |  |  |  |  | % inhibition male (individual replicates) R1 [1, 12]: 11.4%; % inhibition male (individual replicates) R3 [1, 13]: 4.6%; % inhibition male (individual replicates) R4 [1, 14]: 26.9%; Average inhibition male (%) [1, 15]: 17.0%; % inhibition female (individual replicates) R1 [2, 12]: 9.6%; % inhibition female (individual replicates) R3 [2, 13]: -33.2%; % inhibition female (individual replicates) R4 [2, 14]: 28.8%; Average inhibition female (%) [2, 15]: 0.8% |
